According to patent publication US20060069132A1, “Azolecarboxamide herbicides” (priority 2004, published 2006):

Experiments:
[1] = system: corn; assay: Test B pre-/postemergence herbicide test; format: in vivo, Zea mays
Outline: (§1)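 Flooded paddy rice and barnyardgrass were treated at the 2-leaf stage; upland plantings received compound either on sown seed or on 1- to 4-leaf seedlings. All were kept 13–15 days in a greenhouse and scored visually, 0–100, relative to untreated plants.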

[2] = system: blackgrass; assay: Test B postemergence herbicide test; format: in vivo, Alopecurus myosuroides; details: scale 0 (no effect) to 100 (complete control)
Outline: (§2)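 Plants grow to 1- to 4-leaf stage (2–18 cm) for postemergence spraying, or to 2-leaf stage for the paddy test. Formulated compound is applied. Greenhouse holding lasts 13–15 days. Response is scored visually relative to controls, 0 no effect to 100 complete control; a dash means no result.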

[3] = system: wheat; assay: Test B postemergence herbicide test; format: in vivo, Triticum aestivum; parameters: key to Wheat plant response rating: 0 = no effect, 100 = complete control; details: scale 0 (no effect) to 100 (complete control)
Outline: as §2

[4] = system: barnyardgrass; assay: Test B flooded paddy test; format: in vivo, Echinochloa crus-galli; details: 1000 g ai/ha, visual rating, scale 0 to 100 (0 no effect, 100 complete control), 13 to 15 days
Outline: as §2

[5] = system: giant foxtail; assay: Test B pre-/postemergence herbicide test; format: in vivo, Setaria faberi
Outline: as §1

[6] = system: lambsquarters; assay: Test B pre-/postemergence herbicide test; format: in vivo, Chenopodium album
Outline: as §1

[7] = system: barnyardgrass; assay: Test B pre-/postemergence herbicide test; format: in vivo, Echinochloa crus-galli
Outline: (§3)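 Species tested were Echinochloa crus-galli, Ipomoea coccinea, Xanthium strumarium and Oryza sativa, treated both before emergence and at the 1- to 4-leaf stage; rice and barnyardgrass were also tested under flooding at 2 leaves. Greenhouse incubation lasted 13–15 days before visual 0–100 scoring.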

[8] = system: large crabgrass; assay: Test B pre-/postemergence herbicide test; format: in vivo, Digitaria sanguinalis
Outline: as §1

[9] = system: cocklebur; assay: Test B pre-/postemergence herbicide test; format: in vivo, Xanthium strumarium
Outline: as §3

[10] = system: rice; assay: Test B flooded paddy test; format: in vivo, Oryza sativa; details: 1000 g ai/ha, visual rating, scale 0 to 100 (0 no effect, 100 complete control), 13 to 15 days
Outline: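 After treating 2-leaf paddy plants or 2–18 cm postemergence plants (1 to 4 leaves) with formulated chemical, researchers kept them in a greenhouse for 13–15 days. Effects were judged visually versus controls: 0 indicates none, 100 total control.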

[11] = system: small flower umbrella sedge; assay: Test B flooded paddy test; format: in vivo, Cyperus difformis; details: 1000 g ai/ha, visual rating, scale 0 to 100 (0 no effect, 100 complete control), 13 to 15 days
Outline: as §2

[12] = system: ducksalad; assay: Test B flooded paddy test; format: in vivo, Heteranthera limosa; details: 1000 g ai/ha, visual rating, scale 0 to 100 (0 no effect, 100 complete control), 13 to 15 days
Outline: as §2

[13] = system: morningglory; assay: Test B pre-/postemergence herbicide test; format: in vivo, Ipomoea coccinea
Outline: as §3

[14] = system: Surinam grass; assay: Test B pre-/postemergence herbicide test; format: in vivo, Urochloa decumbens
Outline: as §1

[15] = system: wild oat; assay: Test B postemergence herbicide test; format: in vivo, Avena fatua; details: scale 0 (no effect) to 100 (complete control)
Outline: as §2

[16] = system: pigweed; assay: Test B pre-/postemergence herbicide test; format: in vivo, Amaranthus retroflexus
Outline: as §1

[17] = 500 g ai/ha, visual rating 0-100, 0 no effect, 100 complete control, preemergence
[18] = Postemergence, 500 g ai/ha, visual rating after 13 to 15 days, scale 0 (no effect) to 100 (complete control)
[19] = postemergence, 125 g ai/ha, visual rating, scale 0 (no effect) to 100 (complete control)
[20] = preemergence, 125 g ai/ha, 0 to 100 scale, 0 is no effect, 100 is complete control
[21] = Postemergence, 500 g ai/ha, visual rating after 13 to 15 days
[22] = postemergence, 125 g ai/ha, visual rating

`CCOC(=O)c1cc(NC(=O)c2cc(C(C)(C)C)nn2CC)ccc1OC` [Compound 96] was tested, and the “Plant response rating, Corn” value [1, 17] was 70, the “Plant response rating, Corn” value [1, 18] was 20 and the “Corn plant response rating” value [1, 19] was 10. The “Plant response rating, Corn” value [1, 20] was 40, the “Plant response rating, Blackgrass” value [2, 21] was 20 and the “Blackgrass plant response rating” value [2, 22] was 0. The “Plant response rating, Wheat” value [3, 21] was 20, the “Wheat plant response rating” value [3, 22] was 10 and the “Barnyardgrass plant response rating” value [4] was 80. For the same molecule, the “Plant response rating, Foxtail, Giant” value [5, 17] was 90, the “Plant response rating, Foxtail, Giant” value [5, 18] was 50 and the “Foxtail, Giant plant response rating” value [5, 19] was 30. For the same molecule, the “Plant response rating, Foxtail, Giant” value [5, 20] was 60, the “Plant response rating, Lambsquarters” value [6, 17] was 100 and the “Plant response rating, Lambsquarters” value [6, 18] was 100. The “Lambsquarters plant response rating” value [6, 19] was 100, the “Plant response rating, Lambsquarters” value [6, 20] was 100 and the “Plant response rating, Barnyardgrass” value [7, 17] was 90. For the same molecule, the “Plant response rating, Barnyardgrass” value [7, 18] was 50, the “Barnyardgrass plant response rating” value [7, 19] was 0 and the “Plant response rating, Barnyardgrass” value [7, 20] was 70. For the same molecule, the “Plant response rating, Crabgrass, Large” value [8, 17] was 100, the “Plant response rating, Crabgrass, Large” value [8, 18] was 50 and the “Crabgrass, Large plant response rating” value [8, 19] was 40. For the same molecule, the “Plant response rating, Crabgrass, Large” value [8, 20] was 20, the “Plant response rating, Cocklebur” value [9, 17] was 0 and the “Plant response rating, Cocklebur” value [9, 18] was 100. For the same molecule, the “Cocklebur plant response rating” value [9, 19] was 90, the “Plant response rating, Cocklebur” value [9, 20] was 0 and the “Rice plant response rating” value [10] was 70. The “Sedge, Umbrella plant response rating” value [11] was 90, the “Ducksalad plant response rating” value [12] was 90 and the “Plant response rating, Morningglory” value [13, 17] was 10. For the same molecule, the “Plant response rating, Morningglory” value [13, 18] was 0, the “Morningglory plant response rating” value [13, 19] was 0 and the “Plant response rating, Morningglory” value [13, 20] was 0. The “Plant response rating, Surinam Grass” value [14, 17] was 80, the “Plant response rating, Surinam Grass” value [14, 18] was 30 and the “Surinam Grass plant response rating” value [14, 19] was 20. For the same molecule, the “Plant response rating, Surinam Grass” value [14, 20] was 20, the “Plant response rating, Oat, Wild” value [15, 21] was 20 and the “Oat, Wild plant response rating” value [15, 22] was 20. For the same molecule, the “Plant response rating, Pigweed” value [16, 17] was 100, the “Plant response rating, Pigweed” value [16, 18] was 100 and the “Pigweed plant response rating” value [16, 19] was 70. For the same molecule, the “Plant response rating, Pigweed” value [16, 20] was 100.
